According to ChEMBL document CHEMBL4619803, “Stepwise Design of γ-Secretase Modulators with an Advanced Profile by Judicious Coordinated Structural Replacements and an Unconventional Phenyl Ring Bioisostere” (J Med Chem, 2020):
≈ marks a conversion by molar mass, not a printed value. Where “and” joins values, the source holds several entries; their conditions need not be identical. Equal values may be shown once.

Key:
[1] = Fraction unbound in human plasma; assay type: ADME, cell-free
[2] = Fraction unbound in mouse plasma; assay type: ADME, cell-free
[3] = target: Gamma-secretase (Homo sapiens) (UniProt Q96BI3+Q9NZ42+Q8WW43+P49768+Q92542+P49810); test: (§1) Modulation of gamma secretase in human H4 cells over expressing human APP695 harboring K595N/M596L Swedish double mutant assessed as reduction in Abeta42 production after 24 hrs by Alphalisa assay; assay type: cell-based
Gamma-secretase = test: as §1; assay type: cell-based
[4] = (§2) Modulation of mouse gamma secretase assessed as reduction in Abeta42 production
Mus musculus [5] = species: Mus musculus; test: as §2
Mus musculus [6] = test: In vivo modulation of gamma secretase in APP-Swedish transgenic mouse assessed as reduction in Abeta42 production by measuring remaining Abeta42 level at 1 mg/kg, po measured after 4 hrs by ELISA or AlphaLISA assay relative to control; assay type: functional
Mus musculus [7] = test: In vivo modulation of gamma secretase in APP-Swedish transgenic mouse assessed as reduction in Abeta42 production by measuring remaining Abeta42 level at 3 mg/kg, po measured after 4 hrs by ELISA or AlphaLISA assay relative to control; assay type: functional
Mus musculus [8] = test: In vivo modulation of gamma secretase in APP-Swedish transgenic mouse assessed as reduction in Abeta42 production by measuring remaining Abeta42 level at 10 mg/kg, po measured after 4 hrs by ELISA or AlphaLISA assay relative to control; assay type: functional
[9] = Octanol/water distribution co-efficient, log D of the compound at pH 7.4; assay type: physicochemical
[10] = Solubility of compound by lyophilisation solubility assay; assay type: physicochemical
[11] = Clearance in human hepatocytes assessed per million cells; assay type: ADME, cell-based, Hepatocyte; details: read-out: CLH
[12] = Clearance in mouse hepatocytes assessed per million cells; assay type: ADME, cell-based, Hepatocyte; details: read-out: CLH
[13] = target: Voltage-gated inwardly rectifying potassium channel KCNH2 (Homo sapiens, UniProt Q12809); test: (§3) Inhibition of human ERG
Voltage-gated inwardly rectifying potassium channel KCNH2, sequence (Q12809 whole entry): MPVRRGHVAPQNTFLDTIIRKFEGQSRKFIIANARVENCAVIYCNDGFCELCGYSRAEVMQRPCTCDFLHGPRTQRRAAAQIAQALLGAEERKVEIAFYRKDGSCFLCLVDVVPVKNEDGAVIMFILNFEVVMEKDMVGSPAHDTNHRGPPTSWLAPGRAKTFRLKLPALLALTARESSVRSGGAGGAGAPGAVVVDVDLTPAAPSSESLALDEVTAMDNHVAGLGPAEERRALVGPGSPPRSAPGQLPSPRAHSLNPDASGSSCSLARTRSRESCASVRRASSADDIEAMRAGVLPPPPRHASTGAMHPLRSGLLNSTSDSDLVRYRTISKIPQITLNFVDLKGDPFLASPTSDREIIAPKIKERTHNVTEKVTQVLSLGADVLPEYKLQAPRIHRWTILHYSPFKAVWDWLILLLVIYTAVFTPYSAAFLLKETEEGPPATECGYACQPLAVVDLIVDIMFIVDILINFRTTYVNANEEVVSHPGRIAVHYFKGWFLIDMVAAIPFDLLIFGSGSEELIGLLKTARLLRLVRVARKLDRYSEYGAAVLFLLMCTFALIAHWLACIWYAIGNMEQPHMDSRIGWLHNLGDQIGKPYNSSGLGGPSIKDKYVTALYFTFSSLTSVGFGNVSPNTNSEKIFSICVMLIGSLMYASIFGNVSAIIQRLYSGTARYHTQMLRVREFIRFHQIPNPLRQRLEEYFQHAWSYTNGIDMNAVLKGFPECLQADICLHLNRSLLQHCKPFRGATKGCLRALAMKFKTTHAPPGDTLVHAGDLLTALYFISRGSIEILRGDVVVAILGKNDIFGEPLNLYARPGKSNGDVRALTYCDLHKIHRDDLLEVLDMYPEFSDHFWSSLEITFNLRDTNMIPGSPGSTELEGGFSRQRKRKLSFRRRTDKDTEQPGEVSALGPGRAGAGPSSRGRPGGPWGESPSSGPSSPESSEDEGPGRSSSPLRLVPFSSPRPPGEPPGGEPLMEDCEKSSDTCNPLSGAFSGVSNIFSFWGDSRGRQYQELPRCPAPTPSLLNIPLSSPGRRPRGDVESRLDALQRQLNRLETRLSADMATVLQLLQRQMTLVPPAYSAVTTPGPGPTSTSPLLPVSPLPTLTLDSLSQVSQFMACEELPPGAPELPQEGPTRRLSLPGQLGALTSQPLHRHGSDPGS

hERG (KCNH2) = hERG (KCNH2) (Homo sapiens, UniProt Q12809); test: as §3; details: human
hERG (KCNH2), sequence (Q12809 whole entry): as above

[14] = target: Phosphatidylinositol 4-kinase beta (Homo sapiens, UniProt Q9UBF8); test: Binding affinity to PIK4CB (unknown origin); assay type: ADME
Phosphatidylinositol 4-kinase beta, sequence (Q9UBF8 whole entry): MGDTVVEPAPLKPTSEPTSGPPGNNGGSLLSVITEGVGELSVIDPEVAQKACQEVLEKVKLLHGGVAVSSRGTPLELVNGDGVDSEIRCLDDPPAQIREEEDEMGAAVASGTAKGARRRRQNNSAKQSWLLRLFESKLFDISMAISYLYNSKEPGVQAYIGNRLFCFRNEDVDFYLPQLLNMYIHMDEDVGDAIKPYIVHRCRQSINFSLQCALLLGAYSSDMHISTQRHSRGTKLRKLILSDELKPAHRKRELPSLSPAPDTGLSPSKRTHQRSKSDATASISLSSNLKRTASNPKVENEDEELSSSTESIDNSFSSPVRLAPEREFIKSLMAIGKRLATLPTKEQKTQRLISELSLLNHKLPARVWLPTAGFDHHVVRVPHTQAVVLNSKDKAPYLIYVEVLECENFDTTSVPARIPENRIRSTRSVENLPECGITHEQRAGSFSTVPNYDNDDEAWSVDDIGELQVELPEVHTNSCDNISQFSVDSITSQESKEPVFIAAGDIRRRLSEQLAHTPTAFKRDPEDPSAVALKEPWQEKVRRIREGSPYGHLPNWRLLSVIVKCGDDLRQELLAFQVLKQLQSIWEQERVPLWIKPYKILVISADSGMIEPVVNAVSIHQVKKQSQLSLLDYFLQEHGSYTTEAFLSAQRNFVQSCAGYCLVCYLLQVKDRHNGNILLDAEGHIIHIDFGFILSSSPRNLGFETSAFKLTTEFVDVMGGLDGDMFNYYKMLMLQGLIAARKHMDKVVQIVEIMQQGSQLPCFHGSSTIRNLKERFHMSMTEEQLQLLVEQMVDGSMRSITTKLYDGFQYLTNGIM

Keratinocyte = test: Phototoxicity in human Keratinocytes in presence of UVA at 320 to 400 nm; assay type: cell-based; details: light or radiation study
Melanocyte = test: Phototoxicity in human Melanocytes in presence of UVA at 320 to 400 nm; assay type: cell-based; details: light or radiation study
[15] = Ratio of IC50 for dark toxicity in human Keratinocytes to IC50 for phototoxicity in human Keratinocytes in presence of UVA at 320 to 400 nm; assay type: cell-based, Keratinocyte; details: read-out: Ratio IC50
[16] = Ratio of IC50 for dark toxicity in human Melanocytes to IC50 for phototoxicity in human Melanocytes in presence of UVA at 320 to 400 nm; assay type: cell-based, Melanocyte; details: read-out: Ratio IC50
[17] = Covalent protein binding in human liver microsomes assessed per mg protein in presence of NADPH; assay type: ADME, Microsome
[18] = Fraction unbound in rat plasma; assay type: ADME, cell-free
[19] = Clearance in rat hepatocytes assessed per million cell; assay type: ADME, cell-based, Hepatocyte; details: read-out: CLH
[20] = Mutagenicity in Salmonella typhimurium by Ames test; assay type: toxicity; details: salmonella enterica subsp. enterica serovar typhimurium
[21] = Solubility of the compound in fasted state simulated intestinal fluid; assay type: physicochemical; details: simulated gi fluid
[22] = Solubility in fed state simulated intestinal fluids; assay type: physicochemical; details: simulated gi fluid
[23] = Cytotoxicity against human embryonic stem cells assessed as reduction in cell viability; assay type: cell-based
[24] = Thermodynamic solubility of the compound; assay type: physicochemical
[25] = Fraction unbound in 10% fetal calf serum; assay type: ADME, cell-free, Bos taurus; details: cattle
Mus musculus [26] = test: In vivo modulation of gamma secretase in po dosed APP-Swedish transgenic mouse assessed as reduction in total Abeta42 production level in brain administered as single dose by ELISA or AlphaLISA assay; assay type: functional, organism-based
Mus musculus [27] = test: In vivo modulation of gamma secretase in APP-Swedish transgenic mouse assessed as reduction in Abeta42 production by measuring remaining Abeta42 level at 30 mg/kg, po measured after 4 hrs by ELISA or AlphaLISA assay relative to control; assay type: functional

Compound | fraction unbound [1] | fraction unbound [2] | IC50 (Gamma-secretase) [nM] | IC50 [4] | logD [9] | solubility [10] [µg/mL] | hepatocyte CLint [11] [µL/min/1e6 cells] | hepatocyte CLint [12] [µL/min/1e6 cells] | Kd [14] [nM] | further results
Cc1nnc(N2C[C@H]3CC[C@@H](C2)[C@@H]3Nc2nc3c(OC(C)C(F)(F)F)ccc(C(F)(F)F)n3n2)o1 (stereo partly drawn) | 0.028 | 0.044 | 27 | 20 nM | 3.58 | 77 (≈ 152 µM) | 1 | 1.6 | > 40000 | 
Cc1cc(N2C[C@H]3CC[C@@H](C2)[C@@H]3Nc2nc3c(OCC(F)F)ccc(C(F)(F)F)n3n2)ncn1 | 0.028 | 0.017 | 21 | 11 nM | 3.9 | 88 (≈ 182 µM) | 2.3 | 9.4 | 23000 | fIC50 [3]: 12 nM; fIC50 (Mus musculus [5]): 7 nM; IC50 [13]: 4500 nM; IC20 (hERG (KCNH2)): 1400 nM; fraction unbound [18]: 0.01; hepatocyte CLint [19]: 5.8 µL/min/1e6 cells; Activity [20]: Non-Toxic; solubility [21]: 13 µg/mL (≈ 26.9 µM); solubility [22]: 466 µg/mL (≈ 964 µM); IC50 (Keratinocyte): 31000 nM; IC50 (Melanocyte): 31000 nM; Activity [23]: Non-Toxic; Therm solubility [24]: 3 µg/mL
Cc1nnc(N2C[C@H]3CC[C@@H](C2)[C@@H]3Nc2nc3c(OC(C)C(F)(F)F)cccn3n2)o1 (stereo partly drawn) |  |  | 108 |  | 2.68 | 346 (≈ 791 µM) |  |  |  | 
Cc1noc(N2C[C@H]3CC[C@@H](C2)[C@@H]3Nc2nc3c(OCC(F)(F)F)ccc(C(F)(F)F)n3n2)n1 | 0.017 | 0.031 | 33 | 20 nM and 12 nM | 3.79 | 55 (≈ 112 µM) | 1 | 8.5 | > 40000 | fIC50 [3]: 21 nM; IC50 [13]: 8750 nM; IC20 (hERG (KCNH2)): 3500 nM; fraction unbound [18]: 0.046; hepatocyte CLint [19]: 6.9 µL/min/1e6 cells; Activity [20]: Non-Toxic; solubility [21]: 12 µg/mL (≈ 24.4 µM); solubility [22]: 92 µg/mL (≈ 187 µM); IC50 (Keratinocyte): 33000 nM; IC50 (Melanocyte): 33000 nM; Activity [23]: Non-Toxic; Therm solubility [24]: 5 µg/mL
O=S(=O)(N[C@H]1CC[C@@](c2cc(F)ccc2F)(S(=O)(=O)c2ccc(Cl)cc2)CC1)C(F)(F)F |  |  |  |  |  |  |  |  |  | remaining Abeta42 level (% of control) (Mus musculus [8]): 24 - 28%
FC(F)(F)COc1cccn2nc(N[C@@H]3[C@@H]4CC[C@H]3CN(c3ccnc(C(F)(F)F)c3)C4)nc12 | 0.012 | 0.02 | 24 | 21 nM | 4.04 | 11 (≈ 22.6 µM) | 1 | 9 | 250 | 
Cc1nsc(N2CC[C@@H](Nc3nc4c(-c5ccc(F)c(F)c5F)cccn4n3)C(F)(F)C2)n1 | 0.0003 | 0.0029 | 55 | 38 nM |  |  |  |  |  | fraction unbound [25]: 0.06; fIC50 [3]: 3.3 nM; fIC50 (Mus musculus [5]): 2.3 nM; remaining Abeta42 level (% of control) (Mus musculus [7]): 64%; remaining Abeta42 level (% of control) (Mus musculus [8]): 46%; fIC50 (Mus musculus [26]): 8 nM; IC50 (Mus musculus [26]; Mus musculus): 2870 nM; PB [17]: 149 pmol; Activity (Mus musculus [27]): 31%
Cc1cc(N2C[C@H]3CC[C@@H](C2)[C@@H]3Nc2nc3c(OCC(F)(F)F)ccc(C(F)(F)F)n3n2)sn1 | 0.002 |  | 2 | 2 nM | 4.1 | 0.6 (≈ 1.18 µM) | 2 | 19 | 40000 to 100000 | 

Second part, led by results:

fraction unbound [1] | fraction unbound [2] | IC50 (Gamma-secretase) [nM] | IC50 [4] | logD [9] | solubility [10] [µg/mL] | hepatocyte CLint [11] [µL/min/1e6 cells] | hepatocyte CLint [12] [µL/min/1e6 cells] | Kd [14] [nM] | Compound | further results
0.017 | 0.018 | 4 | 4 nM | 3.9 to 3.99 | 31 (≈ 70.7 µM) | 3.3 | 15 | 120 | Cc1cc(N2C[C@H]3CC[C@@H](C2)[C@@H]3Nc2nc3c(OCC(F)(F)F)cccn3n2)sn1 | fIC50 [3]: 3 nM; fIC50 (Mus musculus [5]): 3 nM; Activity (Mus musculus [6]): 75%; remaining Abeta42 level (% of control) (Mus musculus [7]): >=47 - 50%; remaining Abeta42 level (% of control) (Mus musculus [8]): >50%; IC50 [13]: 2900 nM; IC20 (hERG (KCNH2)): 900 nM; IC50 (Keratinocyte): > 137000 nM; IC50 (Melanocyte): > 137000 nM; selectivity ratio [15]: 1; selectivity ratio [16]: 1; PB [17]: 96 pmol
 |  | 49 |  | 2.26 | 456 (≈ 1070 µM) |  |  |  | Cc1nsc(N2C[C@H]3CC[C@@H](C2)[C@@H]3Nc2nc3c(OCC4COC4)cccn3n2)n1 | 
0.055 | 0.061 | 20 | 17 nM | 3.57 | 144 (≈ 304 µM) | 1 | 11 |  | Cc1noc(N2C[C@H]3CC[C@@H](C2)[C@@H]3Nc2nc3c(OCC(F)(F)C(F)(F)F)cccn3n2)n1 | 
0.028 | 0.06 to 0.101 | 21 | 9 nM | 3.17 | 198 (≈ 451 µM) | 1.3 | 4 to 6.4 | 150 | Cc1nsc(N2C[C@H]3CC[C@@H](C2)[C@@H]3Nc2nc3c(OCC(F)(F)F)cccn3n2)n1 | fIC50 [3]: 12 nM; fIC50 (Mus musculus [5]): 5 nM; Activity (Mus musculus [6]): 59%; remaining Abeta42 level (% of control) (Mus musculus [7]): 33%; remaining Abeta42 level (% of control) (Mus musculus [8]): 15%; IC50 [13]: > 10000 nM; IC20 (hERG (KCNH2)): 4500 nM; IC50 (Keratinocyte): 443000 nM; IC50 (Melanocyte): 443000 nM; selectivity ratio [15]: 1.1; selectivity ratio [16]: 1.1; PB [17]: 30 pmol
0.01 | 0.034 | 6 |  | 3.81 | 6.3 (≈ 13.9 µM) | 3.1 | 36 | 85 | Cc1cc(N2C[C@H]3CC[C@@H](C2)[C@@H]3Nc2nc3c(O[C@@H](C)C(F)(F)F)cccn3n2)sn1 | 
 |  | 14 |  | 3.76 to 3.9 | 0.2 to 1 (≈ 0.428 to 2.14 µM) |  |  |  | Cc1nsc(N2C[C@H]3CC[C@@H](C2)[C@@H]3Nc2nc3c(OCCCC(F)(F)F)cccn3n2)n1 | 
0.03 | 0.0521 | 14 |  | 3.36 | 1.7 (≈ 3.75 µM) | 1.3 | 21 |  | Cc1nsc(N2C[C@H]3CC[C@@H](C2)[C@@H]3Nc2nc3c(OCCC(F)(F)F)cccn3n2)n1 | 
0.12 | 0.16 | 231 |  | 2.59 | 396 (≈ 1070 µM) | 10 | 27 |  | COc1cccn2nc(N[C@@H]3[C@@H]4CC[C@H]3CN(c3nc(C)ns3)C4)nc12 | 
0.028 | 0.06 | 16 |  | 3.69 | 78 (≈ 172 µM) | 3.1 | 10 |  | Cc1nsc(N2C[C@H]3CC[C@@H](C2)[C@@H]3Nc2nc3c(O[C@@H](C)C(F)(F)F)cccn3n2)n1 | 
0.02 | 0.032 | 7 | 3 nM | 4.1 | 11 (≈ 23.3 µM) | 4 | 34 |  | Cc1cc(N2C[C@H]3CC[C@@H](C2)[C@@H]3Nc2nc3c(OCC(F)(F)C(F)(F)F)cccn3n2)on1 | 
 | 0.095 | 114 | > 400 nM | 1.79 | 55 to 265 (≈ 130 to 626 µM) |  | 4.6 |  | Cc1noc(N2C[C@H]3CC[C@@H](C2)[C@@H]3Nc2nc3c(OCC(F)(F)F)cccn3n2)n1 | 
 |  | 61 |  | 3.3 | 102 (≈ 240 µM) |  |  |  | Cc1nsc(N2C[C@H]3CC[C@@H](C2)[C@@H]3Nc2nc3c(OC(F)(F)F)cccn3n2)n1 | 
